Measured values reported in patent US10030006B2, “Coumarin based Hsp90 inhibitors with urea and ether substituents” (University of Kansas, priority 2013, dated 2018).
Like-named read-outs stand apart in the source and are kept apart here.

Experiments:
Assay type in all cases: cell-based
[1] = test system: SKBr3 (estrogen receptor negative, Her2 over-expressing breast cancer cells); test: Anti-proliferation assay (MTS/PMS, 72 h), SKBr3; settings: Homo sapiens, SK-BR-3, Breast Cancer, read-out: IC50 SKBr3
[2] = test system: MCF-7 (estrogen receptor positive breast cancer cells); test: Anti-proliferation assay (MTS/PMS, 72 h), MCF-7; settings: Homo sapiens, MCF7, Breast Cancer, read-out: IC50 MCF-3
HCT-116 = test: Anti-proliferation assay, HCT-116; settings: Homo sapiens, HCT-116
Procedure, shortened: (§1)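 MTS/PMS viability readout after 72 h compound exposure, with 1% DMSO-treated wells set as 100% proliferation. Cells at 2000/well, attached overnight before dosing; IC50 fitted from separate triplicate runs.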

PC-3 = test: Anti-proliferation assay, PC-3; settings: Homo sapiens, PC-3, Prostate Cancer
Procedure, shortened: as §1

A-549 = test: Anti-proliferation assay, A-549; settings: Homo sapiens, A549
Procedure, shortened: as §1

MDA1986 = test: Anti-proliferation assay, MDA1986; settings: MDA1986, HSNCC
Procedure, shortened: as §1

JMAR = test: Anti-proliferation assay, JMAR; settings: JMAR, HSNCC
Procedure, shortened: as §1

MDAMB231 = test: Anti-proliferation assay, MDAMB231; settings: Homo sapiens, MDA-MB-231, Tri-Neg
Procedure, shortened: as §1

DRO81-1 = test: Anti-proliferation assay, DRO81-1; settings: Thyroid
Procedure, shortened: as §1

BCPAP = test: Anti-proliferation assay, BCPAP; settings: Homo sapiens, BCPAP, Thyroid
Experimental: Cells were maintained in a 1:1 mixture of Advanced DMEM/F12 (Gibco) supplemented with non-essential amino acids, L-glutamine (2 mM), streptomycin (500 μg/mL), penicillin (100 units/mL), and 10% FBS. Cells were grown to confluence in a humidified atmosphere (37° C., 5% CO2), seeded (2000/well, 100 μL) in 96-well plates, and allowed to attach overnight. Compound at varying concentrations in DMSO (1% DMSO final concentration) was added, and cells were returned to the incubator for 72 h. At 72 h, the number of viable cells was determined using an MTS/PMS cell proliferation kit (Promega) per the manufacturer's instructions. Cells incubated in 1% DMSO were used at 100% proliferation, and values were adjusted accordingly. IC50 values were calculated from separate experiments performed in triplicate using GraphPad Prism.

MRC5 = test: Anti-proliferation assay, MRC5 (normal); settings: Homo sapiens
Procedure, shortened: as §1

HMLE = test: Anti-proliferation assay, HMLE (normal); settings: HMLE
Procedure, shortened: as §1

[3] = Table 6, substituted phenyl ureas
[4] = MRC5, Table 6, substituted phenyl ureas
[5] = Table 7, prenylated phenyl ureas
[6] = MRC5, Table 7, prenylated phenyl ureas

| SMILES | IC50 [1, 3] | IC50 [2, 3] | IC50 (HCT-116; [3]) | IC50 (PC-3; [3]) | IC50 (A-549; [3]) | IC50 (MDAMB231; [3]) | IC50 (MDA1986; [3]) | IC50 (JMAR; [3]) | IC50 (DRO81-1; [3]) | IC50 (BCPAP; [3]) | IC50 (MRC5; [4]) | IC50 (HMLE; [3]) | other results |
| --- | --- | --- | --- | --- | --- | --- | --- | --- | --- | --- | --- | --- | --- |
| CC(=O)Oc1ccc(NC(=O)Nc2cc3ccc(OC4CCN(C)CC4)c(C)c3oc2=O)cc1CC=C(C)C [OAc, 4-(3-(8-methyl-7-((1-methylpiperidin-4-yl)oxy)-2-oxo-2H-chromen-3-yl)ureido)-2-(3-methylbut-2-en-1-yl)phenyl acetate] | – | – | – | – | – | – | – | – | – | – | – | – | IC50 [1, 5]: 540 nM; IC50 [2, 5]: 490 nM; IC50 (HCT-116; [5]): 340 nM; IC50 (PC-3; [5]): 380 nM; IC50 (A-549; [5]): 380 nM; IC50 (MDA1986; [5]): 1320 nM; IC50 (JMAR; [5]): 870 nM; IC50 (MDAMB231; [5]): 750 nM; IC50 (DRO81-1; [5]): 530 nM; IC50 (BCPAP; [5]): 129 nM; IC50 (MRC5; [6]): 1.8 µM; IC50 (HMLE; [5]): 7.2 µM |
| COc1ccc(NC(=O)Nc2cc3ccc(OC4CCN(C)CC4)c(C)c3oc2=O)cc1CC=C(C)C [OMe, 1-(4-methoxy-3-(3-methylbut-2-en-1-yl)phenyl)-3-(8-methyl-7-((1-methylpiperidin-4-yl)oxy)-2-oxo-2H-chromen-3-yl)urea] | – | – | – | – | – | – | – | – | – | – | – | – | IC50 [1, 5]: 510 nM; IC50 [2, 5]: 370 nM; IC50 (HCT-116; [5]): 300 nM; IC50 (PC-3; [5]): 230 nM; IC50 (A-549; [5]): 230 nM; IC50 (MDA1986; [5]): 850 nM; IC50 (JMAR; [5]): 800 nM; IC50 (MDAMB231; [5]): 830 nM; IC50 (DRO81-1; [5]): 210 nM; IC50 (BCPAP; [5]): 1340 nM; IC50 (MRC5; [6]): 2.64 µM; IC50 (HMLE; [5]): 6.5 µM |
| COc1ccc(NC(=O)Nc2cc3ccc(OC4CCN(C)CC4)c(C)c3oc2=O)cc1-c1cccc(OC(C)=O)c1 [OMe, OAc, 2′-methoxy-5′-(3-(8-methyl-7-((1-methylpiperidin-4-yl)oxy)-2-oxo-2H-chromen-3-yl)ureido)-[1,1′-biphenyl]-3-yl acetate] | – | – | – | – | – | – | – | – | – | – | – | – | IC50 ([1]; Table 8, biphenyl ureas): 260 nM; IC50 ([2]; Table 8, biphenyl ureas): 270 nM; IC50 (HCT-116; Table 8, biphenyl ureas): 3390 nM; IC50 (PC-3; Table 8, biphenyl ureas): 1040 nM; IC50 (A-549; Table 8, biphenyl ureas): 540 nM; IC50 (MDA1986; Table 8, biphenyl ureas): 850 nM; IC50 (JMAR; Table 8, biphenyl ureas): 2200 nM; IC50 (MDAMB231; Table 8, biphenyl ureas): 390 nM; IC50 (DRO81-1; Table 8, biphenyl ureas): 260 nM; IC50 (BCPAP; Table 8, biphenyl ureas): 16 nM; IC50 (MRC5; MRC5, Table 8, biphenyl ureas): 3.1 µM; IC50 (HMLE; Table 8, biphenyl ureas): 1 µM |
| COc1ccc(NC(=O)Nc2cc3ccc(OC4CCN(C)CC4)c(C)c3oc2=O)cc1-c1cccc(O)c1 [OMe, OH, 1-(3′-hydroxy-6-methoxy-[1,1′-biphenyl]-3-yl)-3-(8-methyl-7-((1-methylpiperidin-4-yl)oxy)-2-oxo-2H-chromen-3-yl)urea] | – | – | – | – | – | – | – | – | – | – | – | – | IC50 ([1]; Table 8, biphenyl ureas): 390 nM; IC50 ([2]; Table 8, biphenyl ureas): 290 nM; IC50 (HCT-116; Table 8, biphenyl ureas): 420 nM; IC50 (PC-3; Table 8, biphenyl ureas): 600 nM; IC50 (A-549; Table 8, biphenyl ureas): 410 nM; IC50 (MDA1986; Table 8, biphenyl ureas): 2800 nM; IC50 (JMAR; Table 8, biphenyl ureas): 960 nM; IC50 (MDAMB231; Table 8, biphenyl ureas): 95 nM; IC50 (DRO81-1; Table 8, biphenyl ureas): 1200 nM; IC50 (BCPAP; Table 8, biphenyl ureas): 1940 nM; IC50 (MRC5; MRC5, Table 8, biphenyl ureas): 9.8 µM; IC50 (HMLE; Table 8, biphenyl ureas): 3.7 µM |
| COc1cccc(-c2cc(NC(=O)Nc3cc4ccc(OC5CCN(C)CC5)c(C)c4oc3=O)ccc2OC)c1 [OMe, OMe, 1-(3′,6-dimethoxy-[1,1′-biphenyl]-3-yl)-3-(8-methyl-7-((1-methylpiperidin-4-yl)oxy)-2-oxo-2H-chromen-3-yl)urea] | – | – | – | – | – | – | – | – | – | – | – | – | IC50 ([1]; Table 8, biphenyl ureas): 170 nM; IC50 ([2]; Table 8, biphenyl ureas): 200 nM; IC50 (HCT-116; Table 8, biphenyl ureas): 460 nM; IC50 (PC-3; Table 8, biphenyl ureas): 470 nM; IC50 (A-549; Table 8, biphenyl ureas): 470 nM; IC50 (MDA1986; Table 8, biphenyl ureas): 1390 nM; IC50 (JMAR; Table 8, biphenyl ureas): 500 nM; IC50 (MDAMB231; Table 8, biphenyl ureas): 610 nM; IC50 (DRO81-1; Table 8, biphenyl ureas): 480 nM; IC50 (BCPAP; Table 8, biphenyl ureas): 390 nM; IC50 (MRC5; MRC5, Table 8, biphenyl ureas): 4.3 µM; IC50 (HMLE; Table 8, biphenyl ureas): 1.6 µM |
| CCc1cccc(NC(=O)Nc2cc3ccc(OC4CCN(C)CC4)c(C)c3oc2=O)c1 [m-CH2CH3, 1-(3-ethylphenyl)-3-(8-methyl-7-((1-methylpiperidin-4-yl)oxy)-2-oxo-2H-chromen-3-yl)urea] | 440 nM | 500 nM | 340 nM | 410 nM | 400 nM | 1900 nM | 1320 nM | 630 nM | 670 nM | 5590 nM | 5.3 µM | > 25 µM | – |
| CC(=O)c1cccc(NC(=O)Nc2cc3ccc(OC4CCN(C)CC4)c(C)c3oc2=O)c1 [m-COCH3, 1-(3-acetylphenyl)-3-(8-methyl-7-((1-methylpiperidin-4-yl)oxy)-2-oxo-2H-chromen-3-yl)urea] | 830 nM | 1170 nM | 720 nM | 1230 nM | 540 nM | 610 nM | 21000 nM | 15700 nM | 13600 nM | 270 nM | > 25 µM | 1.9 µM | – |
| Cc1c(OC2CCN(C)CC2)ccc2cc(NC(=O)Nc3cccc(O)c3)c(=O)oc12 [m-OH, 1-(3-hydroxyphenyl)-3-(8-methyl-7-((1-methylpiperidin-4-yl)oxy)-2-oxo-2H-chromen-3-yl)urea] | 2370 nM | 2730 nM | > 100000 nM | 10900 nM | 10900 nM | 1300 nM | 21900 nM | 6500 nM | > 25000 nM | 270 nM | > 25 µM | 11.9 µM | – |
| CCc1ccc(NC(=O)Nc2cc3ccc(OC4CCN(C)CC4)c(C)c3oc2=O)cc1 [p-CH2CH3, 1-(4-ethylphenyl)-3-(8-methyl-7-((1-methylpiperidin-4-yl)oxy)-2-oxo-2H-chromen-3-yl)urea] | 580 nM | 560 nM | 530 nM | 410 nM | 490 nM | 690 nM | 1400 nM | 1030 nM | 290 nM | 4360 nM | 2.6 µM | 1.2 µM | – |
| Cc1c(OC2CCN(C)CC2)ccc2cc(NC(=O)Nc3ccc(N(C)C)cc3)c(=O)oc12 [p-N-dimethylamine, 1-(4-(dimethylamino)phenyl)-3-(8-methyl-7-((1-methylpiperidin-4-yl)oxy)-2-oxo-2H-chromen-3-yl)urea] | 1110 nM | 1000 nM | 9340 nM | 7960 nM | 2700 nM | 1400 nM | 17500 nM | 770 nM | > 25000 nM | 740 nM | 14.4 µM | 0.96 µM | – |

Second part, led by results:

| IC50 [1, 3] | IC50 [2, 3] | IC50 (HCT-116; [3]) | IC50 (PC-3; [3]) | IC50 (A-549; [3]) | IC50 (MDAMB231; [3]) | SMILES | IC50 (MDA1986; [3]) | IC50 (JMAR; [3]) | IC50 (DRO81-1; [3]) | IC50 (BCPAP; [3]) | IC50 (MRC5; [4]) | IC50 (HMLE; [3]) | other results |
| --- | --- | --- | --- | --- | --- | --- | --- | --- | --- | --- | --- | --- | --- |
| 4260 nM | 1300 nM | 209000 nM | 4500 nM | 13000 nM | 2900 nM | COc1cc(NC(=O)Nc2cc3ccc(OC4CCN(C)CC4)c(C)c3oc2=O)cc(OC)c1OC [3,4,5-trimethoxyl, 1-(8-methyl-7-((1-methylpiperidin-4-yl)oxy)-2-oxo-2H-chromen-3-yl)-3-(3,4,5-trimethoxyphenyl)urea] | 9100 nM | 1700 nM | 14700 nM | 1320 nM | > 25 µM | > 25 µM | – |
| 840 nM | 550 nM | 1110 nM | 840 nM | 1210 nM | 3500 nM | Cc1cccc(NC(=O)Nc2cc3ccc(OC4CCN(C)CC4)c(C)c3oc2=O)c1 [m-CH3, 1-(8-methyl-7-((1-methylpiperidin-4-yl)oxy)-2-oxo-2H-chromen-3-yl)-3-(m-tolyl)urea] | 2020 nM | 1800 nM | 540 nM | 3540 nM | 4.3 µM | 3.1 µM | – |
| 2370 nM | 1410 nM | 12100 nM | 1910 nM | 1910 nM | 4100 nM | CC(=O)Oc1cccc(NC(=O)Nc2cc3ccc(OC4CCN(C)CC4)c(C)c3oc2=O)c1 [m-OAc, 3-(3-(8-methyl-7-((1-methylpiperidin-4-yl)oxy)-2-oxo-2H-chromen-3-yl)ureido)phenyl acetate] | 6820 nM | 3850 nM | 2700 nM | 2820 nM | > 25 µM | 13.6 µM | – |
